Source: patent publication US20040072725A1, “Remedies/preventives for inflammatory diseases” (AJINOMOTO CO. INC, priority 2001, published 2004)

Key:
[1] = system: collagen-induced arthritis (CIA) in DBA-1 mice; assay: Murine collagen-induced arthritis (CIA); type: in vivo
Protocol: CIA induction in mice was attained by sensitizing mice with type-II collagen to trigger experimental arthritis (see Courtenay et al., Nature, 283, 666-668, 1980).
An emulsion having an antigen amount of 100 μg/0.1 ml/mouse was intracutaneously injected into the tail root of each mouse. Three weeks after the first sensitization, the same emulsion also having an antigen amount of 100 μg/0.1 ml/mouse was again intracutaneously injected into the tail root of each mouse for boosting (additional) immunization, in the same manner as that for the first sensitization. About 4 days after the additional immunization, the mice were diagnosed as being arthritic, in which reddish edema was observed. […] The level of the edema in the mice was grouped into 4 ranks, and every limb (in four limbs) of each mouse was visually checked. […]
Collagen-induced arthritis (CIA) was induced in mice in the same manner as above, and the mice were tested also in the same manner as above. […] The mice were judged on day 14 after the boosting (additional) immunization.
The test condition was the same as above. As a result, in the control group, four of the five mice developed clinical arthritis in 14 days after the second subcutaneous administration; but in the ornithine-administered group, no mice developed it within 14 days after the second subcutaneous administration.
However, it was 0 in the combined administration group.

[2] = system: SKG mice, model mice with spontaneously-developed chronic rheumatism (rheumatoid arthritis); assay: SKG mice with spontaneously-developed chronic rheumatism; type: in vivo
Description: Regarding the score, 0 indicates no change; 0.1 indicates reddish edema seen in the finger joints of the mice; 0.5 indicates edema seen in the joints of the four limbs thereof; and 1.0 indicates serious edema seen in the joints thereof. For these, the mice were visually checked. The total of the scores of all the four limbs of each mouse is plotted in the graph.
An SKG mouse model is known as the naturally-occurring model. This is found in BALB/c mouse colonies as a mouse that develops clinical arthritis, and it is sustained through sibship mating. Regarding the thus-mated SKG mice, when they are judged at 6-month age, almost all mice have some clinical arthritis (joint edema) in any of four limb joints. The arthritis is not by vertical/horizontal infection with microorganisms but is by autosomal recessive inheritance mutation. The clinical arthritis (joint edema) starts in around 2 months after the birth essentially at the finger joints of the forepaws, and thereafter extends to the joints of the hands and the joints of the legs. After 6 months, most of the mice develop arthrosclerosis (articular rigidity). From the pathohistological viewpoint, the disease starts from synovitis to periarthritis and further toward pannus formation and cartilage/subcartilaginous bone tissue fracture and fibrillation. […] This is an extremely interesting model for studying the mechanism of delayed inflammations. As an engineering model, there is known a transgenic (tg) mouse with a Tax gene of a human T cell leukemia virus-1 (HTLV-1) inserted therein. The tg mouse has the transgene expressing in the local joints, in which inflammatory cytokines such as IL-1α, IL-1β, IL-6, TNF-α, TGF-β, IFN-γ and IL-2, as well as MHC gene are activated. […] The tg mouse is a significant model in studies where the influence of Tax gene that will be probably because of its transactivation on the production of inflammatory cytokines or the influence of viruses on the mechanism of autoimmune reaction, and the like are specifically investigated.
The pharmaceutical potency of the above-mentioned BCAA, mixture of branched amino acids, was investigated on SKG mice, model mice with spontaneously-developed chronic rheumatism (articular rheumatism). In the same manner as in Example 2, BCAA was orally administered to 4-weeks-old (before RA development) or 12-weeks-old (after RA development), male SKG mice. The dose to each mouse was 250 mg/liter.

[3] = system: adjuvant-induced arthritis (AA) in Lewis rats; details: 0.03% ornithine oral
Protocol: AA induction in rats was attained in a well-known laboratory method (see Taurog et al., Meth. Enzymolo., 162, 339-355, 1988). Specifically, 50 μ/rat of 1% (w/v) adjuvant was administered to the bottom of the right foot of each rat. One, two and three weeks after the administration, the volume of the edema in the bottom of the right foot of each rat was measured by the use of a device for measuring rats' hind leg (foot) edema.
The dose is the same as in Example 1.
On day 7, 14 and 21 after the adjuvant administration, the rats were checked for edema.

[4] = 0.03% L-ornithine oral from 4 weeks old, mice having turned 20 weeks old

NCCC[C@H](N)C(=O)O [Ornithine, L-ornithine]
Arthritis Score ([1]; L-ornithine 0.006 wt.% aqueous solution, day 14 after boosting immunization): 1.0
Arthritis Score ([1]; L-ornithine 0.01% alone, oral in drinking water, day 12 after the second subcutaneous administration): 0.8
mice showing edema in leg joints ([1]; L-ornithine 0.01% single administration, day 12 after the second subcutaneous administration): three of the ten
Arthritis Score ([1]; L-ornithine 0.03 wt.% aqueous solution, day 14 after boosting immunization): 0.6
dose dependence of effect on CIA (in words) ([1]; L-ornithine 0.15%, 0.03%, 0.006% aqueous solutions): dose-response (dependent) effect of retarding clinical arthritis
Arthritis Score ([1]; L-ornithine 0.15 wt.% aqueous solution, day 14 after boosting immunization): 0.2
effect of feeding as solid feed on clinical arthritis (in words) ([1]; L-ornithine in solid feed): effective for retarding clinical arthritis
mice that developed clinical arthritis ([1]; L-ornithine in solid feed, within 14 days after the second subcutaneous administration): no mice
effect on CIA (in words) ([1]; ornithine 0.03% oral): significantly retards CIA
Arthritis Score ([1]; ornithine 0.03% oral, day 0 after antigenation): 0
Arthritis Score ([1]; ornithine 0.03% oral, day 4 after antigenation): 0
Arthritis Score ([1]; ornithine 0.03% oral, day 6 after antigenation): 0
Arthritis Score ([1]; ornithine 0.03% oral, day 8 after antigenation): 0
Arthritis Score ([1]; ornithine 0.03% oral, day 10 after antigenation): 0
Arthritis Score ([1]; ornithine 0.03% oral, day 12 after antigenation): 0
Arthritis Score ([1]; ornithine 0.03% oral, day 14 after antigenation): 0
tested mice showing edema ([1]; ornithine 0.03% oral, up to day 13 after the second subcutaneous administration): none
arthritis (joint) score ([1]; ornithine 0.03% oral, whole observation (control followed up to day 17)): zero
effect on clinical arthritis (joint edema) in SKG mice (in words) ([2]; 0.03% L-ornithine oral): significantly retard the clinical arthritis (joint edema)
arthritis score average ([2]; 0.03% L-ornithine oral from 4 weeks old, male SKG mice having turned 11 weeks old): 0.18
arthritis (joint) score average [2, 4]: 2.0
score reduction as compared with the control group [2, 4]: 35%
disease development (in words) ([2]; 0.03% L-ornithine oral started at 8 weeks old, effect lower than with start at 4 weeks old): the disease development was depressed in 2 weeks
dose dependence of effect in SKG mice (in words) ([2]; L-ornithine 0.15%, 0.03%, 0.006% aqueous solutions, FIG. 3): dose-dependent (response) effect of retarding clinical arthritis
effect on clinical arthritis in AA models (in words) [3]: significantly retards clinical arthritis
